17 molecules from patent US10596172B2 (Celgene CAR LLC, priority 2008, dated 2020) can be followed below.

Read-outs that look alike come from different tables or passages of the source. A value given as a limit tells only on which side of the number the result lay.

One assay concerns the target JAK3 (Homo sapiens (Human), UniProt P52333). Briefly: Omnia assay for potency assessment against the active form of JAK3. It is filed as biochemical. The following applies: read-out: JAK3 Inhibition. The protocol:
Briefly, 10× stocks of EGFR-WT (PV3872) from Invitrogen and EGFR-T790M/L858R (40350) from BPS Bioscience, San Diego, Calif., 1.13×ATP (AS001A) and appropriate Tyr-Sox conjugated peptide substrates (KCZ1001) were prepared in 1× kinase reaction buffer consisting of 20 mM Tris, pH 7.5, 5 mM MgCl2, 1 mM EGTA, 5 mM β-glycerophosphate, 5% glycerol (10× stock, KB002A) and 0.2 mM DTT (DS001A).
The Omnia Assay Protocol for potency assessment against JAK3 was performed in a substantially similar manner as that described in Example 251 above except that the modified JAK3-optimized reagent conditions were:
[JAK3]=5 nM, [ATP]=5 μM, [Y12-Sox]=5 μM (ATP KMapp˜5 μM).

In the next assay the test system is Human naïve B cells. Briefly: Human primary B cell proliferation assay. In kind it is cell-based. The following applies: 5 μg/ml α-IgM 72 hours, 3H-thymidine incorporation. Here is the method: Human naïve B cells were purified from 100 mL whole blood using a MACS purification kit designed to isolate CD19+, IgD+ cells by negative selection. Purified naïve B cells were resuspended in RPMI complete and stimulated with 5 μg/ml α-IgM for 72 hours. ^3H-Thymidine was included in the culture media for the final 16 h, cells were harvested and ^3H incorporation measured. Inhibition of B cell proliferation correlates with inhibition of BTK substrate phosphorylation after α-IgM stimulation.

Assay [1] concerns the target T1, BTK (Homo sapiens (Human), UniProt Q06187). Briefly: Washout experiment with Ramos cells. It is filed as cell-based. The following applies: 100 nM compound 1 hour, then washout. Here is the method:
Ramos cells were serum starved for one hour in RPMI media +1% glutamine at 37° C. After starvation, Ramos cells were treated with 100 nM compound diluted in serum free RPMI media for 1 hour. After compound treatment, the media was removed and cells were washed with compound-free media. Subsequently, Ramos cells were washed every 2 hours and resuspended in fresh compound-free media. Cells were collected at specified timepoints, treated with 1 ug anti-human IgM (Southern Biotech cat #2022-01) for 10 minutes on ice to induce BCR signaling and then washed in PBS. Ramos cells were then lysed in Cell Extraction Buffer (Invitrogen FNN0011) supplemented with Roche complete protease inhibitor tablets (Roche 11697498001) and phosphatase inhibitors (Roche 04 906 837 001) and 18 ug total protein lysate was loaded in each lane. Inhibition of BTK kinase activity was assayed by measuring its substrate (PLCγ2) phosphorylation by western blot with phospho-specific antibodies from Cell Signaling Technologies cat #3871. The results of this experiment with compounds I-2, I-4 and I-7 are depicted in FIGS. 1, 2 and 3.

Assay [2] relates to B cell lymphoma cell lines. Briefly: B cell lymphoma proliferation assay. In kind it is cell-based.
Assay [3] addresses T1, BTK. Briefly: Mass spectrometry for BTK (covalent modification of intact protein). The following applies: 1 hr, 10x fold excess of compound. In kind it is binding. Here is the method: Intact BTK was incubated for 1 hr at a 10× fold excess of I-7 to protein. Aliquots (2 μl) of the samples were diluted with 10 μl of 0.1% TFA prior to micro C4 ZipTipping directly onto the MALDI target using Sinapinic acid as the desorption matrix (10 mg/ml in 0.1% TFA:Acetonitrile 20:80).

The target of assay [4] is BTK (Rattus norvegicus, UniProt Q5S255). Briefly: BTK occupancy from in vivo samples by ELISA. As to conditions: po, rats dosed orally 30 mg/kg. The protocol:
All samples were prepared with equal concentrations of Biorad lysis buffer (Hercules, Calif., USA), 0.5% bovine serum albumin in PBS with 0.05% Tween-20 to give a final concentration of 1 μM I-215. Samples were incubated in a mixing plate for 1 hr at room temperature while shaking to allow probe compound I-215 to bind to free BTK. After incubation with I-215, samples were added to a washed, streptavidin-coated ELISA plate (Pierce, Rockford, Ill., USA) and incubated for 1 hr at room temperature while shaking. The plate was then washed with PBS containing 0.05% Tween-20 using an automatic plate washer. Anti-BTK antibody was prepared at 1:1000 dilution in 0.5% BSA in PBS (0.05% Tween-20) and added to the ELISA plate. The plate was incubated for 1 hr at room temperature while shaking. The plate was washed as described above and the secondary HRP antibody was prepared at 1:5000 dilution in 0.5% BSA in PBS (0.05% Tween-20). The plate was incubated and washed as described above. TMB was added to the plate, and OD650 was monitored until reaching 1 OD unit. The reaction was then stopped with addition of H2SO4. The plate was analyzed using Gen 5 software, and a 4 Parameter Logistic curve was employed to quantitate samples. Recombinant BTK (Invitrogen, Carlsbad, Calif., USA) was used for the standard curve.
Rats were dosed orally with 30 mg/kg of compound and spleens were harvested either 2 or 24 hours after compound treatment. Rat spleens were disrupted between two microscope slides coated with frosted glass to recover single cell suspensions. Red blood cells were lysed by incubating with RBC lysis buffer (Boston BioProducts) for 2 minutes at room temperature, the cells were then resuspended in RPMI complete media and pelleted by centrifugation. Rat B cells were isolated by positive selection with B220+ antibody-magnetic bead conjugates, purified by MACS column and lysed in Bio-Rad lysis buffer at a concentration of 10 million cells/100 μl. Lysates were analyzed employing the biotinylated probe compound I-215 in an ELISA protocol as described in detail in Example 278.

Where [5] appears, read: Homo sapiens, DOHH-2, DOHH2 B cell lymphoma cell line, read-out: EC50 (μM) DOHH2.
Setting [6] is: Homo sapiens, WSUDLCL2, WSU-DLCL2 B cell lymphoma cell line, read-out: EC50 (μM) WSU-DLCL2.
[7] abbreviates: DHL4 B cell lymphoma cell line, read-out: EC50 (μM) DHL4.

T1 sequence (Q06187 whole entry): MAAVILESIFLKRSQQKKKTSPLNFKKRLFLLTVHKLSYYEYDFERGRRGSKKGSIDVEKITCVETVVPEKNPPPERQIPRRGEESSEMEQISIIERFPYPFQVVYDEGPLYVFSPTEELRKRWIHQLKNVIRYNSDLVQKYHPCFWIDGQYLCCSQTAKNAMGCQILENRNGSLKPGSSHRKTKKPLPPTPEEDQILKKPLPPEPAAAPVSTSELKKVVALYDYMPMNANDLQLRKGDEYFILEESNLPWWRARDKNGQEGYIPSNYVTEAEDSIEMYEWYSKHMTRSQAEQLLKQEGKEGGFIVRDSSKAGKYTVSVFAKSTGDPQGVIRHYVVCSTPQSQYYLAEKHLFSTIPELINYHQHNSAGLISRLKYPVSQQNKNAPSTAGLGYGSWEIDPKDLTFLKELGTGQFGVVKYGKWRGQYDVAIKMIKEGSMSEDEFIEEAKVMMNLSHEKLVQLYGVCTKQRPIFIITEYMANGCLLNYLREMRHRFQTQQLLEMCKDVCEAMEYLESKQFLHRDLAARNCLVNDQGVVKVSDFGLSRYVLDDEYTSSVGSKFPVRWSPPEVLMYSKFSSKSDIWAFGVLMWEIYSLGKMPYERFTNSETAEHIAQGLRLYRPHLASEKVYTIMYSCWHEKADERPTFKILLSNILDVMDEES
Sequence of JAK3 (P52333 whole entry): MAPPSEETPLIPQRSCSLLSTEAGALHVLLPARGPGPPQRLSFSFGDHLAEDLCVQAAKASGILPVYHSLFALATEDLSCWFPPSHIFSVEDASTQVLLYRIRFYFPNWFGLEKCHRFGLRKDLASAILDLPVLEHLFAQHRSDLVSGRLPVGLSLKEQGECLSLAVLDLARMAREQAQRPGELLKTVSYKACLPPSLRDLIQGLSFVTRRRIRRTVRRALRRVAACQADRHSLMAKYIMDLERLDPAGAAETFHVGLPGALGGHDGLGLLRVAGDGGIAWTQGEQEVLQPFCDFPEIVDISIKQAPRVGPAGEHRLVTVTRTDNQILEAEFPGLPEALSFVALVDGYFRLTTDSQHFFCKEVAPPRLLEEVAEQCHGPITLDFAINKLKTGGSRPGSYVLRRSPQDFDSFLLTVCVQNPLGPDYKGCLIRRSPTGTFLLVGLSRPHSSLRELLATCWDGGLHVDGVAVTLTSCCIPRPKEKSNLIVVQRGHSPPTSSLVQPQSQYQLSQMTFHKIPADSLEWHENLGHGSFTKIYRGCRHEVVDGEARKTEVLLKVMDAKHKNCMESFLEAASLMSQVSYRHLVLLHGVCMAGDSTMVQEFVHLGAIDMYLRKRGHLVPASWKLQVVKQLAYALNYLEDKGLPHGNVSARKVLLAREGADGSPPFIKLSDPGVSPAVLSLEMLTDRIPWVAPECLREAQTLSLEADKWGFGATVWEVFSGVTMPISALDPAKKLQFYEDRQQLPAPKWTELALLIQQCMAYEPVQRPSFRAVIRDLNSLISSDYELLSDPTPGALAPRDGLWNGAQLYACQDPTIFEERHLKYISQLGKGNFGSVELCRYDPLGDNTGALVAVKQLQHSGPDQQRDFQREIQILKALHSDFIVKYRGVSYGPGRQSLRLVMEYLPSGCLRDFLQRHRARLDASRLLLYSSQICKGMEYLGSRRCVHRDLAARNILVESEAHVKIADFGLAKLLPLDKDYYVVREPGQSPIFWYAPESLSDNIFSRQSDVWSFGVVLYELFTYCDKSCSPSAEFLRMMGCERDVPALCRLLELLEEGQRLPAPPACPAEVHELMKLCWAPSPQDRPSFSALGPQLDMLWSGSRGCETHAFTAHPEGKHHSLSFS
Sequence of BTK (Rattus norvegicus, UniProt Q5S255) (Q5S255 1-660): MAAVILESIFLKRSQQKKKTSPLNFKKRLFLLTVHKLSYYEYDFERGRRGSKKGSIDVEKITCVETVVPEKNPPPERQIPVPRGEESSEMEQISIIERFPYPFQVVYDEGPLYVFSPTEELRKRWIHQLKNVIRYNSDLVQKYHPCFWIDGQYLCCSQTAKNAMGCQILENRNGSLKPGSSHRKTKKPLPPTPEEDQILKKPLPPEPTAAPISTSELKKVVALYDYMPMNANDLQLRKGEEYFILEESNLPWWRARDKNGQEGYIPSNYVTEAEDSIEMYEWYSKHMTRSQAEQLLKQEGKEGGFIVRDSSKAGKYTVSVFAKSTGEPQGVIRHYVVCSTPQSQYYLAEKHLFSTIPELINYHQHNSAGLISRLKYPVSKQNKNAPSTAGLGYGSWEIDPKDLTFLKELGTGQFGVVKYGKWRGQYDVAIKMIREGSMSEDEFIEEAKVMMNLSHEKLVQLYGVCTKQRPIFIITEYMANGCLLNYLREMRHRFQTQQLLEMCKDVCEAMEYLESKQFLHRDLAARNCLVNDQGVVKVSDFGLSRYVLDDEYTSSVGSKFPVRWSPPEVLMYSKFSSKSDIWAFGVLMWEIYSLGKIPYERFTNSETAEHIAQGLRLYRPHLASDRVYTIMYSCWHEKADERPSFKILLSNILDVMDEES

With `CCC(=O)Nc1cccc(Nc2nc(Nc3ccccc3)ncc2C)c1` [I^R-7, N-(3-(5-methyl-2-(phenylamino)pyrimidin-4-ylamino)phenyl) propionamide], the IC50 on JAK3 was 1000 to 10000 nM. In the assay with Human naïve B cells, this molecule gave an EC50 greater than 1000 nM.

`C=CC(=O)Nc1cccc(Nc2nc(Nc3ccc(F)cc3)ncc2F)c1` [Compound I-247, N-(3-(5-fluoro-2-(4-fluorophenylamino)pyrimidin-4-ylamino)phenyl)acrylamide]: the IC50 on JAK3 was less than 10 nM. On BTK [1], the “BTK Inhibition Type” value is “irreversible”. Further, the half-maximal effective concentration (EC50) in assay [2] (setting [5]) is 0.1 to 1 µM; in assay [2] (setting [6]), 1 to 10 µM.

On to `C=CC(=O)Nc1cccc(Oc2nc(Nc3ccccc3)ncc2C)c1` [Compound I-248, N-(3-(5-methyl-2-(phenylamino)pyrimidin-4-yloxy)phenyl)acrylamide], for which, on JAK3, the IC50 was less than 10 nM. For the same molecule, the “BTK Inhibition Type” value at BTK [1] is on record as “irreversible”. Moreover, the half-maximal effective concentration (EC50) in assay [2] (setting [5]) and in assay [2] (setting [6]) was 1 to 10 µM in each case.

As for `C=CC(=O)Nc1cccc(Nc2nc(Nc3cccc(OC)c3)ncc2C(F)(F)F)c1` [Compound I-242, N-(3-(5-trifluoromethyl-2-(3-methoxyphenylamino)pyrimidin-4-ylamino)phenyl)acrylamide], the IC50 at JAK3 is less than 10 nM. Besides, the “BTK Inhibition Type” value at BTK [1] is “irreversible”. For the same molecule, the half-maximal effective concentration (EC50) in assay [2] (setting [5]) and in assay [2] (setting [6]) was 1 to 10 µM in each case.

Turning to `C=C(C#N)C(O)c1ccc(Nc2nc(Nc3ccccc3)ncc2F)cc1` (stereo not drawn) [Compound I-161, 2-((4-(5-fluoro-2-(phenylamino)pyrimidin-4-ylamino)phenyl)(hydroxy)methyl)acrylonitrile], the “covalent modification of BTK by mass spectrometry” value (shortened to “covalent modification of BTK”) at BTK [3] is given as “completely modify”. Moreover, the concentration giving a half-maximal response (EC50) in assay [2] (setting [7]) and in assay [2] (setting [5]) was 1 to 10 µM each time.

For `C=CC(=O)N(C)Cc1ccc(Nc2nc(Nc3ccccc3)ncc2C)cc1` [Compound I-219, N-methyl-N-(4-(5-methyl-2-(phenylamino)pyrimidin-4-ylamino)benzyl)acrylamide], the “covalent modification of BTK” value on BTK [3] is given as “completely modify”.

On to `C=CC(=O)Nc1cccc(Nc2nc(Nc3cccc(OC(F)(F)F)c3)ncc2F)c1` [Compound I-244, N-(3-(5-fluoro-2-(3-(trifluoromethoxy)phenylamino)pyrimidin-4-ylamino)phenyl)acrylamide], for which the IC50 on JAK3 is less than 10 nM. In addition, the “covalent modification of BTK” value at BTK [3] is “completely modify”. For the same molecule, the 50% effective concentration (EC50) was 1 to 10 µM in assay [2] (setting [7]), 0.1 to 1 µM in assay [2] (setting [5]) and 1 to 10 µM in assay [2] (setting [6]).

For `C=CC(=O)Nc1cccc(Nc2nc(Nc3ccc(OC)nc3)ncc2F)c1` [Compound I-243, N-(3-(5-fluoro-2-(6-methoxypyridin-3-ylamino)pyrimidin-4-ylamino)phenyl)acrylamide], on JAK3, the IC50 was less than 10 nM. Moreover, the “BTK Inhibition Type” value at BTK [1] was “irreversible”. Further, the concentration giving a half-maximal response (EC50) in assay [2] (setting [5]) and in assay [2] (setting [6]) was 1 to 10 µM in each case.

With `C=CC(=O)Nc1cccc(Nc2nc(Nc3ccccc3)ncc2F)c1` [Compound I-28, N-(3-(5-fluoro-2-(phenylamino)pyrimidin-4-ylamino)phenyl)acrylamide], the IC50 at JAK3 is less than 10 nM. Besides, on BTK [1], the “BTK Inhibition Type” value is reported as “irreversible”. Also, the EC50 in assay [2] (setting [5]) and in assay [2] (setting [6]) was 1 to 10 µM throughout.

Take `Cc1cnc(Nc2ccccc2)nc1Nc1cccc(NC(=O)/C=C/CN(C)C)c1` [Compound I-38, (E)-4-(dimethylamino)-N-(3-(5-methyl-2-(phenylamino)pyrimidin-4-ylamino)phenyl)but-2-enamide]: at JAK3, the IC50 fell in the range of 10 to 100 nM. Also, at BTK [1], the “BTK Inhibition Type” value was “reversible”. In addition, the concentration giving a half-maximal response (EC50) in assay [2] (setting [5]) and in assay [2] (setting [6]) was 1 to 10 µM throughout.

For `C=C(C#N)C(O)c1cccc(Nc2nc(Nc3ccc(OCCOC)cc3)ncc2F)c1` (stereo not drawn) [Compound I-71, 2-((3-(5-fluoro-2-(4-(2-methoxyethoxy)phenylamino)pyrimidin-4-ylamino)phenyl)(hydroxy)methyl)acrylonitrile], the “covalent modification of BTK” value at BTK [3] is listed as “completely modify”.

For the molecule `C=CC(=O)N1CCC[C@@H](Nc2nc(Nc3cccc(OC)c3)ncc2F)C1` [Compound I-195, (R)-1-(3-(5-fluoro-2-(3-methoxyphenylamino)pyrimidin-4-ylamino)piperidin-1-yl)prop-2-en-1-one], the “covalent modification of BTK” value at BTK [3] is reported as “completely modify”. Further, the 50% effective concentration (EC50) in assay [2] (setting [7]) is greater than 10 µM; in assay [2] (setting [5]), 1 to 10 µM; in assay [2] (setting [6]), greater than 10 µM.

With “2-((4-(5-fluoro-2-(3-trifluoromethoxyphenylamino)pyrimidin-4-ylamino)phenyl)(hydroxy)methyl)acrylonitrile [Compound I-163]”, the “covalent modification of BTK” value on BTK [3] is “completely modify”.

Take `C=CC(=O)N1CCC[C@@H](Oc2nc(Nc3cccc(OC)c3)ncc2F)C1` [Compound I-190, (R)-1-(3-(5-fluoro-2-(3-methoxyphenylamino)pyrimidin-4-yloxy)piperidin-1-yl)prop-2-en-1-one]: the receptor occupancy at 30 mg/kg amounted to 18% at BTK [4] (spleen B cells harvested 2 hours after treatment, read-out: % BTK Occupancy 2 h) and 13% at BTK [4] (spleen B cells harvested 24 hours after treatment, read-out: % BTK Occupancy 24 h). Further, the EC50 in the assay with Human naïve B cells is 10 to 100 nM; in assay [2] (setting [5]) it was greater than 10 µM.

For the molecule `CC(C)=CC(=O)c1cccc(Nc2nc(Nc3cccc(OCCN(C)C)c3)ncc2F)c1` [Compound I-207], the “covalent modification of BTK” value on BTK [3] is given as “completely modify”. In addition, the EC50 was in the range of 0.1 to 1 µM in assay [2] (setting [5]) and 1 to 10 µM in assay [2] (setting [6]).

As to `C=CC(=O)N1CCOc2ccc(Nc3ncc(F)c(Nc4cccc(Cl)c4)n3)cc21` [Compound I-149, 1-(6-(4-(3-chlorophenylamino)-5-fluoropyrimidin-2-ylamino)-2H-benzo[b][1,4]oxazin-4(3H)-yl)prop-2-en-1-one], on BTK [3], the “covalent modification of BTK” value was “completely modify”. Besides, the EC50 in assay [2] (setting [5]) lay within 1 to 10 µM.

Turning to `C#CCOc1cccc(Nc2ncc(C)c(Nc3cccc(NC(=O)C=C)c3)n2)c1` [Compound I-35, N-(3-(5-methyl-2-(3-(prop-2-ynyloxy)phenylamino)pyrimidin-4-ylamino)phenyl) acrylamide], the IC50 at JAK3 was less than 10 nM. Besides, the “BTK Inhibition Type” value on BTK [1] is listed as “irreversible”. Moreover, the EC50 in assay [2] (setting [5]) and in assay [2] (setting [6]) was 1 to 10 µM throughout.
